Results published in article PMC10100467, “The Function of Two Radical‐SAM Enzymes, HcgA and HcgG, in the Biosynthesis of the [Fe]‐Hydrogenase Cofactor” (Angewandte Chemie (International Ed. in English), 2022).

Target: T1, HcgA (Methanococcus maripaludis, UniProt Q6M0Z2)
T1 construct: His-tagged, produced in Escherichia coli with helper plasmid pRKISC; [4Fe-4S] radical SAM enzyme, CX5CX2C motif
T1 sequence (Q6M0Z2 1-341): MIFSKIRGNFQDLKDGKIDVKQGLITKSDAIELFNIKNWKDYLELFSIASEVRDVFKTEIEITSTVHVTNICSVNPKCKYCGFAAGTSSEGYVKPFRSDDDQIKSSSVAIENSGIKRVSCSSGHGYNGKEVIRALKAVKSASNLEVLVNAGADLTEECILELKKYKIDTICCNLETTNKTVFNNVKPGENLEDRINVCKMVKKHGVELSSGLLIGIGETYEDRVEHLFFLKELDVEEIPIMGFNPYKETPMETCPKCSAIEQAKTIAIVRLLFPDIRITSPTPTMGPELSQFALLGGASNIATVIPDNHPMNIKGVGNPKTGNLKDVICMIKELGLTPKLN
Assay: radical SAM activity, HPLC-MS of product […]
Format: biochemical
Details: 1 mM SAH, without added SAM; 3 kDa filtrate of the delta-hcgA cell extract as substrate

SMILES: Nc1ncnc2c1ncn2[C@@H]1O[C@H](CSCC[C@H](N)C(=O)O)[C@@H](O)[C@H]1O [S-adenosyl homocysteine]
- relative activity (%): The HcgA activity was inhibited by a radical SAM enzyme inhibitor, S‐adenosyl homocysteine
